Data published in patent US20110053900A1, “PROGESTERONE ANTAGONISTS SUCH AS CDB-4124 IN THE TREATMENT OF BREAST CANCER” (Repros Therapeutics inc, priority 2008, published 2011).
Marks after values point to notes of the source that are not given here.

Key:
[1] = test system: DMBA-induced tumors of the rat mammary gland; test: DMBA-induced breast tumors: tumor number, size and tumor burden at necropsy; type: in vivo; conditions: for Tumor Burden / Tumor Weight mean / Tumor Weight median / Number of Tumors: 28 days; for Number of Tumors: FA/AF excluded; for lowering of tumor burden and median tumor sizes: 10 mg/kg, versus control
Experimental: (§1) To induce breast tumors, Sprague-Dawley female rats were given 10 mg/kg body weight of DMBA at 50 days of age. One group of 14 rats (Group 2) received sesame oil at 50 days of age instead of DMBA to serve as the no-DMBA controls. Animals were weighed and palpated weekly along the milk line for any sign of lesions or swellings. Tumor nodules were noted and measured weekly in two dimensions with calipers. When tumors grew to a size of 10-12 mm in any dimension, the individual animal was randomized into one of 14 groups. Tumors appeared as soon as 39 days after oral gavage and as late as 194 days (latter individual not included in study). The mean latency period for tumor appearance was 106±30 days.
(§2) Animals were treated for 28 days on the following schedule. Group 1 received daily subcutaneous (s.c.) injections of vehicle (10% ethanol in sesame oil). Group 2 (no DMBA control group-no tumors expected) received vehicle on a schedule decided beforehand to simulate initiation of treatment over a three-month time period. […] Groups 5 through 9 received 20 mg/kg, 10 mg/kg, 2 mg/kg, 1 mg/kg and 0.1 mg/kg of CDB-4124, respectively. Groups 10 through 14 mirrored the treatment given 5 through 9 except that 10 mg/kg of micronized progesterone was also added as a component to compositions for injections.
(§3) Animals were sacrificed 3-5 days after the end of the 28-day treatment period, blood was drawn, and tumors were removed, weighed, measured, inspected, and portions frozen and/or placed in 10% phosphate buffered formalin for histopathology. The tissue samples were cut and stained with hematoxylin and eosin and were evaluated for histopathological classification.
The results in Table 3 are those for ACA, PCA and mixed ACA/PCA, but the FA or AF tumors are excluded.

[2] = test system: DMBA-induced tumors of the rat mammary gland; test: DMBA-induced breast tumors: tumor number and tumor type at necropsy; type: in vivo; conditions: for ACA + PCA per rat / ACA per rat / FA/AF no. / Incidence of tumors (%) / Incidence of tumors (rats with tumors/rats) / PCA per rat: 28 days
Experimental: as §1, §2, §3
Histologically, four types of tumors were identified (Table 2): adenocarcinomas (ACAs), papillary carcinomas (PCAs), a fibrosarcoma, and fibroadenomas or adenofibromas (FA or AF), the latter two tumor types were not considered to represent frank malignancies.

[3] = test system: rat tumors (proliferation marker Ki-67); test: Tumor proliferation by Ki-67 immunohistochemistry; type: in vivo; conditions: 10 mg/kg
Excerpt: In order to assess the effects of progestins and anti-progestins on cell proliferation, tissue sections derived from 46 individual rat tumors from treated an control animals were examined by measuring expression of the proliferation marker Ki-67 using the Ki-67 antibody (NeoMarkers, Fremont, Calif.) and immunohistochemistry. Despite the reduction in size of many tumors in Groups 3 and 6 following treatment in Groups 3 and 6 making them too small to be re-cut, 7-12 ACAs from Groups 1, 3, 4, 6 and 11 were re-cut. The results of proliferation experiments, in which proliferation was measured as a percentage of cells expressing Ki-67, are summarized in Table 4: […]

[4] = Serum cortisol by ELISA; type: in vivo, rat; conditions: 10 mg/kg, 21 days of dosing
Experimental: (§4) The animals were assessed three times for their levels of progesterone: initially, when they were about to go on treatment; a second time after 21 days of treatment; and finally after treatment at sacrifice which was 2-4 days after the last s.c. injection. All blood samples were taken by heart puncture; serum was prepared and held frozen at −40° C. The levels of the steroid hormones progesterone, cortisol, and corticosterone were determined by ELISA.
(§5) The concentrations of steroid hormones were determined three times during the study: before the beginning of treatments, after 21 days of treatment and finally after treatment at sacrifice which was 2-4 days after the last s.c. injection. All samples were taken by heart puncture. Serum was obtained and held frozen at −40° C. The levels of steroid hormones were determined by ELISA.

[5] = test system: rat tumors; test: Apoptosis in tumors; type: in vivo; conditions: 10 mg/kg
Experimental: Apoptosis was evaluated in the same tumors by an apoptosis hybridization kit (Oncor, Gaithersburg, Md.). The cells in apoptosis were evaluated in the peripheral areas of the tumors and far from necrosis. At least 1,000 cells per tumor section were evaluated.

[6] = Serum progesterone by ELISA; type: in vivo, rat; conditions: for Serum Progesterone, Before TX (mean): before treatment; for Serum Progesterone, During TX (mean): after 21 days of treatment; for Serum Progesterone, After TX (mean): at sacrifice 2-4 days after the last s.c. injection
Experimental: as §4, §5

[7] = test system: DMBA-induced tumors of the rat mammary gland; test: DMBA-induced breast tumors: tumor progression (growth pattern); type: in vivo; conditions: 10 mg/kg
Experimental: as §1, §2
In order to evaluate the effects of CDB-4124, RU486 and progesterone on tumor development and progression, growth kinetics and tumor size were monitored during the treatment period. Individual tumors from animals with tumors in the study were measured weekly in two dimensions with calipers. The data is corrected to exclude the non-malignant FA/AF tumor types. Tumors that increased in cross-sectional area by at least 33% over the 28-day inspection period were considered to be growing (FIG. 1, black boxes). Those that decreased by approximately 33% were considered to be regressing (FIG. 1, white boxes). Others were considered to be static (FIG. 1, gray boxes).

## COCC(=O)[C@@]1(OC(C)=O)CC[C@H]2[C@@H]3CCC4=CC(=O)CCC4=C3[C@@H](c3ccc(N(C)C)cc3)C[C@@]21C [CDB-4124, 21-methoxy-17α-acetoxy-11β-(4 N,N-dimethylaminophenyl)-19-norpregna-4,9-diene-3,20-dione]
[1]; 0.1 mg/kg s.c. daily
  Tumor Burden: 5.1 g/rat
  Tumor Weight mean: 2.26 g
  Tumor Weight median: 0.17 g
  Number of Tumors: 29
[1]; 1 mg/kg s.c. daily
  Tumor Burden: 0.94 g/rat
  Tumor Weight mean: 0.53 g
  Tumor Weight median: 0.17 g
  Number of Tumors: 16
[1]; 2 mg/kg s.c. daily
  Tumor Burden: 4.61 g/rat
  Tumor Weight mean: 2.98 g
  Tumor Weight median: 0.09 g
  Number of Tumors: 17
[1]; 10 mg/kg s.c. daily
  Tumor Burden: 0.48 g/rat
  Tumor Weight mean: 0.26 g
  Tumor Weight median: 0.075 g
  Number of Tumors: 18
[1]
  lowering of tumor burden and median tumor sizes: 10 fold
[1]; 20 mg/kg s.c. daily
  Tumor Burden: 4.71 g/rat
  Tumor Weight mean: 3.4 g
  Tumor Weight median: 0.125 g
  Number of Tumors: 20
[2]; 0.1 mg/kg s.c. daily
  ACA + PCA per rat: 2.25
  ACA per rat: 1.17
  FA/AF no.: 3
  Incidence of tumors (%): (100) %
  Incidence of tumors (rats with tumors/rats): 12/12
  PCA per rat: 0.83
[2]; 1 mg/kg s.c. daily
  ACA + PCA per rat: 1.78
  ACA per rat: 1.67
  FA/AF no.: 2
  Incidence of tumors (%): (82) %
  Incidence of tumors (rats with tumors/rats): 9/11
  PCA per rat: 0.11
[2]; 2 mg/kg s.c. daily
  ACA + PCA per rat: 1.55
  ACA per rat: 1.45
  FA/AF no.: 2
  Incidence of tumors (%): (92) %
  Incidence of tumors (rats with tumors/rats): 11/12
  PCA per rat: 0.09
[2]; 10 mg/kg s.c. daily
  ACA + PCA per rat: 1.70
  ACA per rat: 1.5
  FA/AF no.: 1
  Incidence of tumors (%): (91) %
  Incidence of tumors (rats with tumors/rats): 10/11
  PCA per rat: 0.2
[2]; 20 mg/kg s.c. daily
  ACA + PCA per rat: 1.38
  ACA per rat: 1.31
  FA/AF no.: 3
  Incidence of tumors (%): (100) %
  Incidence of tumors (rats with tumors/rats): 13/13
  PCA per rat: 0.08
[2]; 20, 10, 2, 1 mg/kg/day
  average multiplicity across the highest four treatment groups: 1.58 tumors per rat
[3]
  Proliferating tumor cells by Ki-67, % cells positive: 5.1 ± 4.2%
[4]
  serum cortisol versus control group (in words): significantly higher levels of serum cortisol
[5]
  Apoptosis, % cells positive: 3.84 ± 3.10%
[6]; 0.1 mg/kg group
  Serum Progesterone, Before TX (mean): 54 ng/mL
[6]; 0.1 mg/kg
  Serum Progesterone, During TX (mean): 53 ng/mL
  Serum Progesterone, After TX (mean): 53 ng/mL
[6]; 1 mg/kg group
  Serum Progesterone, Before TX (mean): 64 ng/mL
[6]; 1 mg/kg
  Serum Progesterone, During TX (mean): 47 ng/mL
  Serum Progesterone, After TX (mean): 42 ng/mL
[6]; 2 mg/kg group
  Serum Progesterone, Before TX (mean): 59 ng/mL
[6]; 2 mg/kg
  Serum Progesterone, During TX (mean): 74* ng/ml
  Serum Progesterone, After TX (mean): 56 ng/mL
[6]; 10 mg/kg group
  Serum Progesterone, Before TX (mean): 52 ng/mL
[6]; 10 mg/kg
  Serum Progesterone, During TX (mean): 77* ng/ml
  Serum Progesterone, After TX (mean): 43 ng/mL
[6]; 20 mg/kg group
  Serum Progesterone, Before TX (mean): 61 ng/mL
[6]; 20 mg/kg
  Serum Progesterone, During TX (mean): 96* ng/ml
  Serum Progesterone, After TX (mean): 58 ng/mL
[7]; decrease of cross-sectional area by about 33% over 28 days
  proportion of tumors regressing: 70%

## CC#C[C@]1(O)CC[C@H]2[C@@H]3CCC4=CC(=O)CCC4=C3[C@@H](c3ccc(N(C)C)cc3)C[C@@]21C [RU 486, mifepristone, reference compound]
[1]; 10 mg/kg s.c. daily
  Tumor Burden: 2.47 g/rat
  Tumor Weight mean: 1.19 g
  Tumor Weight median: 0.16 g
  Number of Tumors: 27
[1]
  lowering of tumor burden and median tumor sizes: 5 fold
[2]; 10 mg/kg s.c. daily
  ACA + PCA per rat: 2.00
  ACA per rat: 2.08
  FA/AF no.: 1
  Incidence of tumors (%): (93) %
  Incidence of tumors (rats with tumors/rats): 13/14
  PCA per rat: 0.08
[3]
  Proliferating tumor cells by Ki-67, % cells positive: 12.9 ± 7.0%
[4]
  serum cortisol versus control group (in words): no significant difference in the levels of cortisol
[5]
  Apoptosis, % cells positive: 3.34 ± 2.57%
[6]; 10 mg/kg group
  Serum Progesterone, Before TX (mean): 58 ng/mL
[6]; 10 mg/kg
  Serum Progesterone, During TX (mean): 72* ng/ml
  Serum Progesterone, After TX (mean): 52 ng/mL
[7]; compared to the controls
  effect on tumor growth pattern (in words): apparent increase in the proportion of regressing tumors
